Test results: article PMC5593639, “NSC30049 inhibits Chk1 pathway in 5-FU-resistant CRC bulk and stem cell populations” (Oncotarget, 2017)

Columns and labels:
[1] = test system: CA2 CRC stem cell line; assay: Spheroid (sphere) formation assay; type: cell-based; conditions: Homo sapiens; drug alone, seventh day
Experimental: Live CA2 cells (100) were seeded in 384-well ultra-low attachment plates. Next, day cells were treated with different concentrations of NSC49L and 5-FU either alone or in combination. Cells were incubated for 7 days and the number of spheroids were counted in control and treated groups under an Olympus inverted microscope with a 10× magnification.

[2] = test system: ALDH1, KLF4, Nanog, Oct4, Sox2, c-Myc mRNA in CA2 cells; assay: Stem cell marker and self-renewal gene mRNA levels by qRT-PCR; type: cell-based, human; conditions: drug alone, 72 h, normalized with GAPDH
Experimental: Total RNA was isolated from control and treated cells with RNAzol reagent (Invitogen, Carlsbad, CA, USA). The expression of mRNA levels of stemness genes was determined by qRT-PCR using Bio-Rad CFX96 Real Time System C1000 Thermal Cycler. The primers used for amplification of mRNA levels of genes were from Celprogen, Inc., as shown here with their Gene Bank accession and catalog numbers: ALDHA1 (NM_000689, Cat. No. CepALDHA1-02), Klf4 (NM_004235, Cat No. CepKlf4-02), Nanog (NM_024865, Cat. No. CepNanog-02), Oct4 (NM_002701, Cat No. CepOct4-02), Sox2 (NM_003106, Cat. No. CepSox2-02), c-Myc (NM_002467, Cat. No. Cepc-Myc-02) and GAPDH (NM_002046, Cat. No. Cep-GAPDH-02).

[3] = test system: HCoEpiC normal colonic epithelial cell line; assay: Cell survival (MTT assay), HCoEpiC; type: cell-based; conditions: Homo sapiens, drug alone, 48 h
Experimental: (§1) The survival of cells was determined by MTT (3-(4,5-Dimethylthiazol-2yl-)-2,5-diphenyl tetrazolium bromide) assay (ATCC, Manassas, VA, USA). In principle, the viable cell number is directly proportional to the purple formazan color of the reduced MTT dye, which can be quantitatively measured by spectrophotometry. Briefly, 1,500 cells were plated in quadruplets in 96-well flat-bottom tissue culture plates. After treatment with compounds for certain periods as described in respective figure legends, 10 μl of MTT reagent was added to each well and incubated at 37°C for 4 h to allow the formation of purple color crystals of formazan. In total, 100 μl of detergent solution was added to each well, and the reaction mixture was incubated in dark for 2–4 h at room temperature. The developed color density was then measured spectrophotometrically at 570 nm using the POLARstar Omega micro-plate reader (BMG Labtech, Inc., Cary, NC, USA).

[4] = test system: HCT-116 cells; assay: Cell survival (MTT assay), HCT-116; type: cell-based, human; conditions: for IC50: Homo sapiens, HCT-116, 48 h; for cytotoxic effect: 48 h
Experimental: as §1

[5] = test system: human-derived CRC stem cell tumors; assay: Patient-derived tumor xenograft (PDTX) of CRC stem cell tumors; type: in vivo, female SCID mice; conditions: 20 mg/kg body weight 5-FU every day, 30 days
Experimental: With the pharmacokinetics analysis and MTD data in hand, we determined the efficacy of NSC49L and 5-FU alone and in combination for the growth of human-derived CRC stem cell tumors in vivo. CRC stem cells were isolated and characterized from the freshly resected human CRC tumor. One thousands of these CRC stem cells were injected subcutaneously into the right flank of the four 5-week old female SCID mice. After 20 days the first generation tumors (F0) of approximately 2,000 mm^3 in size were harvested. They were divided into four equal pieces and implanted under the skin of the female SCID mice for the growth of second generation tumors (F1) for testing the drug efficacy studies. We divided the F1 tumor bearing mice into four groups and treated them every day subcutaneously with drugs as follows: i) PBS control, (ii) 50 mg/kg body weight NSC49L, (iii) 20 mg/kg body weight 5-FU, and iv) 50 and 20 mg/kg body weight NSC49L and 5-FU, respectively, for 30 days. The treatment with drugs began after 10 days of tumor growth. The body weight and tumor volumes were recorded twice a weak. The experiment was terminated on the 32nd day.

[6] = test system: SW480 cells; assay: Cell survival (MTT assay), SW480; type: cell-based; conditions: Homo sapiens, drug alone, 48 h
Experimental: as §1

[7] = test system: RKO cells; assay: Cell survival (MTT assay), RKO; type: cell-based; conditions: Homo sapiens, drug alone, 48 h
Experimental: as §1

[8] = test system: LS174T cells; assay: Cell survival (MTT assay), LS174T; type: cell-based; conditions: Homo sapiens, drug alone, 48 h
Experimental: as §1

[9] = test system: Chk1 phosphorylation in HCT-116 cells; assay: Western blot of total and phosphorylated Chk1, HCT-116; type: cell-based, human; conditions: 5-FU alone, 24 h
Experimental: (§2) The levels of various proteins were determined by Western blot analysis with our previously described procedure. The antibodies for phospho-Chk1(Ser317), phospho-Chk1(Ser317), phospho-Chk1(Ser319), phospho-Chk1(Ser345), Chk1, and GAPDH were purchased from Cell Signaling Technology (Danvers, MA, USA).

[10] = test system: LoVo cells; assay: Cell survival (MTT assay), LoVo; type: cell-based; conditions: Homo sapiens, drug alone, 48 h
Experimental: as §1

[11] = design: method as in PMID 20482808; conditions: cited from earlier work
[12] = test system: Chk1 phosphorylation in HT29 cells; assay: Western blot of total and phosphorylated Chk1, HT29; type: cell-based, human; conditions: 2 mM HU 24 h
Experimental: as §2

[13] = test system: HCT116(p53−/−) cells; assay: MTT assay, IC50 of HU, HCT116(p53−/−); type: cell-based, human; conditions: 72 h, compared with HCT116(p53+/+) cells
Experimental: as §1

[14] = test system: HT29 cells; assay: Cell cycle profile by FACS; type: cell-based, human; conditions: 2 mM HU 24 h
Experimental: For determining the cell cycle profile, cells were plated in 60 mm tissue culture dishes and grown until 60% confluence. […] After treatment, cells were harvested at different time intervals, washed with ice-cold PBS and processed for FACS analysis as described previously. The ranges for G0/G1, S, and G2/M phase arrested and sub-G1 apoptotic cells were established on the basis of the corresponding DNA content of the histograms. At minimum, 10,000 cells were counted from each sample.

[15] = test system: human immunodeficiency virus (HIV) strain 1(RF); design: method as in http://dtp.cancer.gov/dtpstandard/AIDSData/index.jsp; conditions: ref http://dtp.cancer.gov/dtpstandard/AIDSData/index.jsp; cited from earlier work
[16] = Solubility in water; type: physicochemical

O=c1[nH]cc(F)c(=O)[nH]1 [5-FU, 5-fluorouracil]
IC50 [1]: 7.5 µM | mRNA levels of ALDH1, KLF4, Nanog, Oct4, Sox2 and c-Myc [2]: decreased | IC50 [3]: 513 ± 22 µM | IC50 ([4]; drug alone, MTT, Table 1, four estimations): 11.5 ± 1.5 µM | Growth of CRC stem cell tumors [5]: initially appreciable; however after the 21st day of treatment growth of the tumors resumed | IC50 [6]: 113 ± 6 µM | IC50 [7]: 68 ± 10.4 µM | IC50 [8]: 51 ± 3.8 µM | Chk1 phosphorylation (S317, S345, S296) [9]: increased phosphorylation at all three Chk1 sites | IC50 [10]: 22 ± 0.9 µM | AUC (bioavailability) [11]: 59710 ± 10580 ng·h/mL | t1/2 [11]: 12.6 ± 3.6 min

CC[N+](CC)(CC)CC=CCCl.[Cl-] [CBTA, (4-Chloro-but-2-enyl)triethylammonium chloride, reference compound]
cytotoxic effect ([4]; MTT assay, Figure 1B): very little cytotoxic effect

C1N2CN3CN1CN(C2)C3 [HMTA, hexamethylenetetramine, reference compound]
cytotoxic effect ([4]; MTT assay, Figure 1B): very little cytotoxic effect

NC(=O)NO [HU, hydroxyurea, reference compound]
Phosphorylation of Chk1 at S317, S345 and S296 [12]: increased | IC50 of HU [13]: decreased | Cell cycle distribution G2/M [14]: 19.4% | Cell cycle distribution S (S-phase arrest) [14]: 27.7% | Cell cycle distribution S (S-phase arrest) ([14]; HU withdrawn, 8 h drug-free medium): 42.4%

ClCC=CC[N+]12CN3CN(CN(C3)C1)C2 [NSC30049, 1-(4-Chloro-2-butenyl)-1λ∼5∼,3,5,7-tetraazatricyclo [3.3.1.1∼3,7∼] decane]
Activity against HIV [15]: inactive | Solubility in water [16]: readily soluble in water

ClC/C=C\C[N+]12CN3CN(CN(C3)C1)C2 [c-NSC30049]
IC50 ([4]; MTT assay, Figure 1B, three experiments): 7.2 µM
